Assays:
[1] = target: T1, 5-HT1A serotonin receptor (Rattus norvegicus, UniProt P19327); assay: displacement of [3H] 8-OH DPAT from the 5-HT1A serotonin receptor (procedure of Hall et al.); assay type: binding; conditions: for inhibition at 0.1 µM / inhibition at 1 µM: read-out: Affinity for 5HT1A Receptor % Inhibition; for IC50: [3H] 8-OH DPAT displacement, read-out: Affinity for 5HT1A Receptor IC50
T1 sequence (P19327 1-422): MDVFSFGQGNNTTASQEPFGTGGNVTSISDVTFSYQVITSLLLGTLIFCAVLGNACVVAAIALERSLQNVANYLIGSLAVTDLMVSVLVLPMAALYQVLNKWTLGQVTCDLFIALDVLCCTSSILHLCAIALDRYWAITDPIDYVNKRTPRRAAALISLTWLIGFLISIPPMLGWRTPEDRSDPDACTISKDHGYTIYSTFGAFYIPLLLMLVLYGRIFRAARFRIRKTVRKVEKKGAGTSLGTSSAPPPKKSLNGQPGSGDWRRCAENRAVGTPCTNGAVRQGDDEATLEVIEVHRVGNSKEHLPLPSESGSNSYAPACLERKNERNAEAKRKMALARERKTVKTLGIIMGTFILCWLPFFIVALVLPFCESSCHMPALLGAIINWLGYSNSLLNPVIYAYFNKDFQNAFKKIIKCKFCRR
Description: 8-OH DPAT (dipropylaminotetralin) from the 5-HT1A serotonin receptor by the procedure of Hall et al., J. Neurochem.

D2 dopamine receptor = D2 dopamine receptor (Rattus norvegicus, UniProt P61169); assay: D2 dopamine receptor binding study with 3H-spiroperiodol in homogenized limbic brain tissue; conditions: read-out: Affinity for D2 Receptor % Inhibition
Description: The D2 dopamine receptor binding study was in accordance with a modification of the procedure of Field et al., Brain Res., 136, pp. 578-584 (1977) and Yamamura et al., eds., Neurotransmitter Receptor Binding, Raven Press, N.Y. (1978), wherein homogenized limbic brain tissue is incubated with ^3H-spiroperiodol and various concentrations of test compounds, filtered and washed and shaken with Hydrofluoro scintillation cocktail (National Diagnostics) and counted in a Packard 460CD scintillation counter.

D2 dopamine receptor, sequence (P61169 whole entry): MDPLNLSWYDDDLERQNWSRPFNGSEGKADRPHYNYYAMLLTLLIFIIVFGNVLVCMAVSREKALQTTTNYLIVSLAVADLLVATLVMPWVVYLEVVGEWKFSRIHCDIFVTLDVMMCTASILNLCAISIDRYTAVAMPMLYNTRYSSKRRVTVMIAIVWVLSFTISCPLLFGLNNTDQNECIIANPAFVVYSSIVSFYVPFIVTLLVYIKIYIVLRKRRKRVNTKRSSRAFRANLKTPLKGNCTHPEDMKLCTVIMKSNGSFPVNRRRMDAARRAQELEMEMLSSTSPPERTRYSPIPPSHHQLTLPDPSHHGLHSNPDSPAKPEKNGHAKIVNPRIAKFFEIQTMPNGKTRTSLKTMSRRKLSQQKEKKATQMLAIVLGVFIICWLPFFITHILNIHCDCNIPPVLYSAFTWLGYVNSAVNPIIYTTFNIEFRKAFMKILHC

inhibition at 0.1 µM [1]	inhibition at 10 µM (D2 dopamine receptor; at 10 µM)	IC50 [1]	inhibition at 1 µM [1]	inhibition at 0.1 µM (D2 dopamine receptor; at 0.1 µM)	inhibition at 1 µM (D2 dopamine receptor; at 1 µM)	Compound
56%	–	–	–	–	–	COc1ccccc1N1CCN(CCC(=O)NC2(C)CCCCC2)CC1 [Example 4, 4-(2-Methoxyphenyl)-N-(1-methylcyclohexyl)-1-piperazinepropanamide]
90%	38%	11.4 nM	100%	–	–	COc1ccccc1N1CCN(CC(Cc2ccccc2)C(=O)NC(C)(C)C)CC1 (racemic) [Example 3, N-Tertiary-butyl 2-[[4-(2-methoxyphenyl)piperazinyl]methyl]-3-phenyl-propanamide]
69%	–	25 nM	86%	8%	32%	COc1ccccc1N1CCN(CC(C(=O)NC(C)(C)C)c2ccccc2)CC1 (racemic) [Example 2, N-Tertiary-butyl 3-[4-(2-methoxyphenyl)piperazinyl]-2-phenyl-propanamide]
18%	–	287 nM	72%	–	–	COc1ccccc1N1CCN(CCC(=O)NC(C)(C)C)CC1 [Example 6, N-(1,1-Dimethylethyl)-3-[4-(2-methoxyphenyl)-1-piperazinyl]-propanamide]
